Results as given in PubChem BioAssay AID248 (DTP/NCI, 2004).
Several values for one entry are separate records, joined by “and”; a condition that tells them apart may be missing. Equal values may be shown once. Toxic doses and inconclusive results are not listed. No stated cut-off is given here; in the data, active means T/C of 150% or more; inactive means T/C below 125%.

Tested on: L1210 leukemia ip in BDF1 mice, survival T/C
Assay: NCI In Vivo Anticancer Drug Screen. Data for tumor model L1210 Leukemia (intraperitoneal) in B6D2F1 (BDF1) mice
Settings: higher = longer survival
Outline: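 Transplanted-tumor mice were given test agent; controls received vehicle only. Survival readings from the two groups were divided (treated over control).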

[1] = endpoint: mean survival time, dose: 50.0 mg/kg/injection, schedule: Q01DX009 (ip), vehicle: saline
[2] = endpoint: mean survival time, dose: 100.0 mg/kg/injection, schedule: Q01DX001 (ip), vehicle: saline
[3] = endpoint: mean survival time, dose: 100.0 mg/kg/injection, schedule: Q01DX009 (ip), vehicle: saline
[4] = endpoint: mean survival time, dose: 200.0 mg/kg/injection, schedule: Q01DX001 (ip), vehicle: saline
[5] = endpoint: mean survival time, dose: 400.0 mg/kg/injection, schedule: Q01DX001 (ip), vehicle: saline
[6] = endpoint: mean survival time, dose: 100.0 mg/kg/injection, schedule: Q04DX003 (ip), vehicle: saline
[7] = endpoint: mean survival time, dose: 200.0 mg/kg/injection, schedule: Q04DX003 (ip), vehicle: saline

Measured: T/C

CCCCCCCCCCCCCCCC(=O)OCC1OC(n2ccc(N)nc2=O)C(O)C1O (centres undefined)
inactive: endpoint: mean survival time, dose: 24.0 mg/kg/injection, schedule: Q01DX009 (oral), vehicle: saline with Tween-80 119 % of control | endpoint: mean survival time, dose: 36.0 mg/kg/injection, schedule: Q01DX009 (oral), vehicle: saline with Tween-80 113 % of control | [1] 115 % of control | endpoint: mean survival time, dose: 64.0 mg/kg/injection, schedule: Q04DX003 (oral), vehicle: saline with Tween-80 101 % of control | endpoint: mean survival time, dose: 98.0 mg/kg/injection, schedule: Q04DX003 (oral), vehicle: saline with Tween-80 106 % of control | [3] 96 % of control | endpoint: mean survival time, dose: 140.0 mg/kg/injection, schedule: Q01DX001 (oral), vehicle: saline with Tween-80 98 % of control | endpoint: mean survival time, dose: 146.0 mg/kg/injection, schedule: Q04DX003 (oral), vehicle: saline with Tween-80 106 % of control | endpoint: mean survival time, dose: 214.0 mg/kg/injection, schedule: Q01DX001 (oral), vehicle: saline with Tween-80 97 % of control | endpoint: mean survival time, dose: 220.0 mg/kg/injection, schedule: Q04DX003 (oral), vehicle: saline with Tween-80 104 % of control | endpoint: mean survival time, dose: 320.0 mg/kg/injection, schedule: Q01DX001 (oral), vehicle: saline with Tween-80 108 % of control | endpoint: mean survival time, dose: 480.0 mg/kg/injection, schedule: Q01DX001 (oral), vehicle: saline with Tween-80 101 % of control | endpoint: median survival time, dose: 300.0 mg/kg/injection, schedule: Q01DX001 (ip), vehicle: none 98 % of control | endpoint: median survival time, dose: 300.0 mg/kg/injection, schedule: Q01DX001 (ip), vehicle: saline 94 % of control
active: endpoint: mean survival time, dose: 5.0 mg/kg/injection, schedule: Q01DX005 (ip), vehicle: other 150 % of control | endpoint: mean survival time, dose: 6.0 mg/kg/injection, schedule: Q01DX009 (ip), vehicle: saline with Tween-80 200 % of control | endpoint: mean survival time, dose: 8.8 mg/kg/injection, schedule: Q01DX009 (ip), vehicle: saline with Tween-80 210 % of control | endpoint: mean survival time, dose: 10.0 mg/kg/injection, schedule: Q01DX005 (ip), vehicle: other 182 % of control and 183 % of control and 198 % of control | endpoint: mean survival time, dose: 10.0 mg/kg/injection, schedule: Q06HX008 (ip), vehicle: other 236 % of control | endpoint: mean survival time, dose: 12.0 mg/kg/injection, schedule: Q01DX009 (ip), vehicle: saline with Tween-80 242 % of control | endpoint: mean survival time, dose: 12.5 mg/kg/injection, schedule: Q01DX001 (ip), vehicle: saline 153 % of control | endpoint: mean survival time, dose: 13.0 mg/kg/injection, schedule: Q01DX009 (ip), vehicle: saline with Tween-80 244 % of control (2×) and 260 % of control | endpoint: mean survival time, dose: 15.0 mg/kg/injection, schedule: Q01DX005 (ip), vehicle: other 210 % of control and 231 % of control and 237 % of control | endpoint: mean survival time, dose: 15.0 mg/kg/injection, schedule: Q01DX008 (ip), vehicle: other 226 % of control | endpoint: mean survival time, dose: 15.0 mg/kg/injection, schedule: Q12HX008 (ip), vehicle: other 292 % of control | endpoint: mean survival time, dose: 16.0 mg/kg/injection, schedule: Q06HX008 (ip), vehicle: other 267 % of control | endpoint: mean survival time, dose: 20.0 mg/kg/injection, schedule: Q01DX005 (ip), vehicle: other 220 % of control and 224 % of control and 245 % of control | endpoint: mean survival time, dose: 20.0 mg/kg/injection, schedule: Q01DX008 (ip), vehicle: other 264 % of control | endpoint: mean survival time, dose: 25.0 mg/kg/injection, schedule: Q01DX001 (ip), vehicle: other 153 % of control and 154 % of control and 174 % of control | endpoint: mean survival time, dose: 25.0 mg/kg/injection, schedule: Q01DX001 (ip), vehicle: saline with Tween-80 196 % of control | endpoint: mean survival time, dose: 25.0 mg/kg/injection, schedule: Q01DX001 (ip), vehicle: saline 165 % of control | endpoint: mean survival time, dose: 25.0 mg/kg/injection, schedule: Q01DX005 (ip), vehicle: other 243 % of control and 258 % of control and 273 % of control | endpoint: mean survival time, dose: 25.0 mg/kg/injection, schedule: Q01DX008 (ip), vehicle: other 267 % of control | endpoint: mean survival time, dose: 25.0 mg/kg/injection, schedule: Q02DX008 (ip), vehicle: other 270 % of control | endpoint: mean survival time, dose: 25.0 mg/kg/injection, schedule: Q04DX008 (ip), vehicle: other 245 % of control and 252 % of control | endpoint: mean survival time, dose: 25.0 mg/kg/injection, schedule: Q06DX008 (ip), vehicle: other 165 % of control and 187 % of control | endpoint: mean survival time, dose: 25.0 mg/kg/injection, schedule: Q08DX008 (ip), vehicle: other 178 % of control | endpoint: mean survival time, dose: 27.0 mg/kg/injection, schedule: Q02DX005 (ip), vehicle: saline with Tween-80 255 % of control | endpoint: mean survival time, dose: 30.0 mg/kg/injection, schedule: Q01DX009 (ip), vehicle: saline with Tween-80 270 % of control | endpoint: mean survival time, dose: 30.0 mg/kg/injection, schedule: Q03HX008 (ip), vehicle: other 192 % of control | endpoint: mean survival time, dose: 32.0 mg/kg/injection, schedule: Q04DX003 (ip), vehicle: saline with Tween-80 198 % of control | endpoint: mean survival time, dose: 35.0 mg/kg/injection, schedule: Q01DX005 (ip), vehicle: other 254 % of control and 255 % of control | endpoint: mean survival time, dose: 40.0 mg/kg/injection, schedule: Q03HX008 (ip), vehicle: other 151 % of control and 167 % of control | endpoint: mean survival time, dose: 49.0 mg/kg/injection, schedule: Q04DX003 (ip), vehicle: saline with Tween-80 271 % of control | endpoint: mean survival time, dose: 50.0 mg/kg/injection, schedule: Q01DX001 (ip), vehicle: other 173 % of control and 187 % of control and 211 % of control | endpoint: mean survival time, dose: 50.0 mg/kg/injection, schedule: Q01DX001 (ip), vehicle: saline with Tween-80 165 % of control | endpoint: mean survival time, dose: 50.0 mg/kg/injection, schedule: Q01DX001 (ip), vehicle: saline 186 % of control and 207 % of control | endpoint: mean survival time, dose: 50.0 mg/kg/injection, schedule: Q04DX008 (ip), vehicle: other 216 % of control | endpoint: mean survival time, dose: 50.0 mg/kg/injection, schedule: Q06DX008 (ip), vehicle: other 245 % of control and 283 % of control | endpoint: mean survival time, dose: 50.0 mg/kg/injection, schedule: Q08DX008 (ip), vehicle: other 283 % of control and 293 % of control | endpoint: mean survival time, dose: 60.0 mg/kg/injection, schedule: Q02DX005 (ip), vehicle: saline with Tween-80 182 % of control | endpoint: mean survival time, dose: 67.0 mg/kg/injection, schedule: Q01DX001 (ip), vehicle: saline with Tween-80 162 % of control and 220 % of control | endpoint: mean survival time, dose: 70.0 mg/kg/injection, schedule: Q01DX001 (ip), vehicle: saline with Tween-80 239 % of control | endpoint: mean survival time, dose: 75.0 mg/kg/injection, schedule: Q02DX004 (ip), vehicle: other 244 % of control | endpoint: mean survival time, dose: 90.0 mg/kg/injection, schedule: Q02DX004 (ip), vehicle: other 283 % of control | endpoint: mean survival time, dose: 100.0 mg/kg/injection, schedule: Q01DX001 (ip), vehicle: other 220 % of control and 253 % of control and 281 % of control | [2] 276 % of control and 293 % of control | endpoint: mean survival time, dose: 100.0 mg/kg/injection, schedule: Q02DX008 (ip), vehicle: other 194 % of control | endpoint: mean survival time, dose: 100.0 mg/kg/injection, schedule: Q04DX008 (ip), vehicle: other 286 % of control | endpoint: mean survival time, dose: 120.0 mg/kg/injection, schedule: Q03DX004 (ip), vehicle: other 235 % of control | endpoint: mean survival time, dose: 150.0 mg/kg/injection, schedule: Q04DX008 (ip), vehicle: other 233 % of control and 235 % of control | endpoint: mean survival time, dose: 150.0 mg/kg/injection, schedule: Q08DX008 (ip), vehicle: other 291 % of control | [4] 283 % of control | endpoint: mean survival time, dose: 225.0 mg/kg/injection, schedule: Q01DX001 (ip), vehicle: saline with Tween-80 249 % of control | endpoint: mean survival time, dose: 250.0 mg/kg/injection, schedule: Q01DX001 (ip), vehicle: other 175 % of control and 210 % of control and 234 % of control | endpoint: mean survival time, dose: 337.0 mg/kg/injection, schedule: Q01DX001 (ip), vehicle: saline with Tween-80 172 % of control | [5] 156 % of control | endpoint: median survival time, dose: 75.0 mg/kg/injection, schedule: Q01DX001 (ip), vehicle: saline 288 % of control | endpoint: median survival time, dose: 150.0 mg/kg/injection, schedule: Q01DX001 (ip), vehicle: saline 288 % of control

CC(=O)OC1CC2C=CC1C2 (centres undefined)
inactive: endpoint: mean survival time, dose: 100.0 mg/kg/injection, schedule: Q01DX009 (ip), vehicle: saline with Tween-80 93 % of control | endpoint: mean survival time, dose: 200.0 mg/kg/injection, schedule: Q01DX009 (ip), vehicle: saline with Tween-80 91 % of control | endpoint: mean survival time, dose: 400.0 mg/kg/injection, schedule: Q01DX009 (ip), vehicle: saline with Tween-80 86 % of control

CC(=O)Nc1ccc(S(N)(=O)=O)cn1
inactive: [6] 102 % of control | [7] 89 % of control | endpoint: mean survival time, dose: 400.0 mg/kg/injection, schedule: Q04DX003 (ip), vehicle: saline 86 % of control

CC(=O)c1ccc(C#N)cc1.[Co+3].[NH2-].[NH2-].[NH2-].[NH2-].[NH2-].[O-][Cl+3]([O-])([O-])O
inactive: endpoint: mean survival time, dose: 100.0 mg/kg/injection, schedule: Q04DX002 (ip), vehicle: saline 104 % of control | endpoint: mean survival time, dose: 200.0 mg/kg/injection, schedule: Q04DX002 (ip), vehicle: saline 111 % of control | endpoint: mean survival time, dose: 400.0 mg/kg/injection, schedule: Q04DX002 (ip), vehicle: saline 108 % of control

O=C1NC(=O)C(=O)C(=O)N1
inactive: [1] 94 % of control | endpoint: mean survival time, dose: 50.0 mg/kg/injection, schedule: Q04DX003 (ip), vehicle: saline 93 % of control | [2] 94 % of control | [3] 97 % of control | [6] 97 % of control | [4] 108 % of control | endpoint: mean survival time, dose: 200.0 mg/kg/injection, schedule: Q01DX009 (ip), vehicle: saline 103 % of control | [7] 97 % of control

COC1CCCC(/C(=C\Br)c2ccccc2)C1 (centres undefined)
inactive: [2] 106 % of control | [4] 106 % of control | [5] 115 % of control
